Data taken from patent publication US20240016781A1, “TREATMENT OF KRAS MUTANT CANCERS” (MEI Pharma, Inc., priority 2020, published 2024).
“And” between values parts separate entries of the source, which are not always exact repeats. Equal values may be shown once.

Assays:
Assay in all cases: 72-hour CellTiter-Glo 2.0 growth inhibition screen (single agent, 9x9 combination dose matrix)
Type in all cases: cell-based
[1] = system: NCI-H1373
Protocol: (§1) Growth inhibition was determined using a 72-hour CellTiter-Glo®2.0 proliferation assay. Combination format was a 9×9 dose matrix. Six of the 20 cell lines received the original two combinations whilst the remaining 14 cell lines received two additional combinations resulting in four combinations in total. Results have been supplied as both Chalice Analyzer files (.mcc) and raw luminescence data.
(§2) Cell lines that have been preserved in liquid nitrogen are thawed and expanded in growth media (see Appendix I). Once cells have reached expected doubling times, screening begins. Cells are seeded in 25 μl of growth media in black 384-well tissue culture treated plates at 500 cells per well (as noted in Analyzer). Cells are equilibrated in assay plates via centrifugation and placed at 37° C. 5% CO2 for twenty-four hours before treatment. […] Compounds are transferred to assay plates using and Echo acoustic liquid handling system. […] of each compound was added at the appropriate concentration for all combination dose points. Therefore, final assay volume would be 25.05 μl. Assay plates are incubated with compound for 3 days and are then analyzed using CellTiter-Glo 2.0. All data points are collected via automated processes and are subject to quality control and analyzed.
(§3) If T≥V_0:100*(1−(T−V_0)/(V−V_0)) • where T is the signal measure for a test article, V is the untreated/vehicle-treated control measure, and Vo is the untreated/vehicle control measure at time zero (also colloquially referred as TO plates). This formula is derived from the Growth Inhibition calculation used in the National Cancer Institute's NCI-60 high throughput screen. For the purposes of this disclosure, all data analysis was performed in Growth Inhibition (except where noted).
(§4) Inhibition is also provided as a measure of cell viability. […] Inhibition of 100% represents no doubling of cell numbers during the treatment window. Both cytostatic and cytotoxic treatments can yield an Inhibition percentage of 100%. Inhibition percentage is calculated as the following: […]
(§5) The fractional inhibition for each component agent and combination point in the matrix is calculated relative to the median of all untreated/vehicle-treated control wells. The Synergy Score equation integrates the experimentally-observed activity volume at each point in the matrix in excess of a model surface numerically derived from the activity of the component agents using the Loewe model for additivity. Additional terms in the Synergy Score equation (above) are used to normalize for various dilution factors used for individual agents and to allow for comparison of synergy scores across an entire experiment. The inclusion of positive inhibition gating or an Idata multiplier removes noise near the zero-effect level, and biases results for synergistic interactions at that occur at high activity levels. Combinations with higher maximum Growth Inhibition (GI) effects or those which are synergistic at low concentrations will have higher Synergy Scores.
(§6) The CI is a rough estimate of how much drug was needed in combination relative to the single agent doses required to achieve the chosen effect level. CI values in the range of 0.5-0.7 are typical for in vitro measurements of current clinical combinations. The CI error (σCI) is calculated using standard error propagation through the CI calculation based on the isobologram errors. In the Chalice Analyzer, the Best CI is reported from the many CI values calculated for each Icut crossing combination. Among all the measured CI values, the one with the largest single-to-noise level (1−CI)/σCI is reported as the Best CI. Best CI Level is the effect level from which the CI is calculated.

[2] = system: HCC1171; conditions: HCC1171, Lung; growth inhibition (GI), AUC, single agent, 72 h
Protocol: as §1, §2, §3, §4, §5, §6

[3] = system: HPAF-II
Protocol: as §1, §2, §3, §4, §5, §6

[4] = system: NCI-H358
Protocol: as §1, §2, §3, §4, §5, §6

[5] = system: Gp2D
Protocol: as §1, §2, §3, §4, §5, §6

[6] = system: TOV-21G; conditions: TOV-21G, Ovary; growth inhibition (GI), AUC, single agent, 72 h
Protocol: as §1, §2, §3, §4, §5, §6

[7] = system: NCI-H2030
Protocol: as §1, §2, §3, §4, §5, §6

[8] = system: HCC44; conditions: HCC44, Lung; growth inhibition (GI), AUC, single agent, 72 h
Protocol: as §1, §2, §3, §4, §5, §6

[9] = system: SW48
Protocol: as §1, §2, §3, §4, §5, §6

[10] = system: SW48 KRAS (G12C/+)
Protocol: as §1, §2, §3, §4, §5, §6

[11] = system: NCI-H23
Protocol: as §1, §2, §3, §4, §5, §6

[12] = system: AsPC-1
Protocol: as §1, §2, §3, §4, §5, §6

[13] = system: KYSE-410
Protocol: as §1, §2, §3, §4, §5, §6

[14] = system: MIA PaCa-2
Protocol: as §1, §2, §3, §4, §5, §6

[15] = system: SW837
Protocol: as §1, §2, §3, §4, §5, §6

[16] = system: LS-513
Protocol: as §1, §2, §3, §4, §5, §6

[17] = system: Panc 04.03
Protocol: as §1, §2, §3, §4, §5, §6

[18] = system: NCI-H1792
Protocol: as §1, §2, §3, §4, §5, §6

## C=C(F)C(=O)N1CCN(c2nc(OC[C@@H]3CCCN3C)nc3c2CCN(c2cccc4cccc(Cl)c24)C3)C[C@@H]1CC#N [MRTX849]
[1]
  HSA volume: 2.06 and 1.03
[1]; NCl-H1373, Lung, growth inhibition (GI), AUC, single agent, 72 h
  Response Area: 4.82
[2]
  Response Area: 5.95
[3]
  HSA volume: 1.34 and 0.93
[3]; HPAF-II, Pancreas, growth inhibition (GI), AUC, single agent, 72 h
  Response Area: 2.04
[4]
  HSA volume: 2.90
[4]; NCl-H358, Lung, growth inhibition (GI), AUC, single agent, 72 h
  Response Area: 5.85
[5]
  Loewe Volume: 0.46 and 0.37
[5]; Gp2D, Colorectal, growth inhibition (GI), AUC, single agent, 72 h
  Response Area: 1.86
[6]
  Response Area: 2.28
[7]
  HSA volume: 1.90 and 1.28
[7]; NCl-H2030, Lung, growth inhibition (GI), AUC, single agent, 72 h
  Response Area: 2.65
[8]
  Response Area: 3.02
[9]
  Bliss Volume: 9.14 and 4.79
  HSA volume: 3.40 and 2.30
  Loewe Volume: 6.95 and 4.49
[9]; SW48, Colorectal, growth inhibition (GI), AUC, single agent, 72 h
  Response Area: 2.78
[10]
  HSA volume: 4.53
  Loewe Volume: 4.75 and 2.96
[10]; SW48 KRAS (G12C/+), Colorectal, growth inhibition (GI), AUC, single agent, 72 h
  Response Area: 2.88
[11]
  HSA volume: 5.10 and 2.97
  Loewe Volume: 4.80 and 2.46
[11]; NCl-H23, Lung, growth inhibition (GI), AUC, single agent, 72 h
  Response Area: 4.15
[12]
  Loewe Volume: 0.71 and 0.37
[12]; AsPC-1, Pancreas, growth inhibition (GI), AUC, single agent, 72 h
  Response Area: 2.27
[13]
  Bliss Volume: 7.25 and 5.69
  HSA volume: 2.25 and 1.80
  Loewe Volume: 6.19 and 5.14
[13]; KYSE-410, Esophageal, growth inhibition (GI), AUC, single agent, 72 h
  Response Area: 2.24
[14]
  HSA volume: 5.25 and 2.97
  Loewe Volume: 4.29 and 2.30
[15]
  HSA volume: 6.87 and 4.50
  Loewe Volume: 5.57
[15]; SW837, Colorectal, growth inhibition (GI), AUC, single agent, 72 h
  Response Area: 5.55
[16]
  HSA volume: 0.51 and 0.34
  Loewe Volume: 0.85 and 0.46
[16]; LS-513, Colorectal, growth inhibition (GI), AUC, single agent, 72 h
  Response Area: 1.56
[17]
  HSA volume: 0.64 and 0.37
  Loewe Volume: 3.31 and 1.76
[17]; Panc 04.03, Pancreas, growth inhibition (GI), AUC, single agent, 72 h
  Response Area: 2.20
[18]
  HSA volume: 4.71 and 3.40
  Loewe Volume: 5.13 and 3.37
[18]; NCl-H1792, Lung, growth inhibition (GI), AUC, single agent, 72 h
  Response Area: 3.02
